Like-named read-outs stand apart in the source and are kept apart here.
What was measured:
MB49 allograft = assay: In vivo Compound 1 combination treatment, allograft; parameters: species or system B6 mice; conditions: Cmpd1 + αPD-L1
off-target kinases [1] = target: T1, off-target kinases (Homo sapiens, UniProt Q02156); assay: SelectScreen Kinase Profiling, biochemical single point inhibition; conditions: ATP Km, ZLYTE
T1 sequence (Q02156 1-737): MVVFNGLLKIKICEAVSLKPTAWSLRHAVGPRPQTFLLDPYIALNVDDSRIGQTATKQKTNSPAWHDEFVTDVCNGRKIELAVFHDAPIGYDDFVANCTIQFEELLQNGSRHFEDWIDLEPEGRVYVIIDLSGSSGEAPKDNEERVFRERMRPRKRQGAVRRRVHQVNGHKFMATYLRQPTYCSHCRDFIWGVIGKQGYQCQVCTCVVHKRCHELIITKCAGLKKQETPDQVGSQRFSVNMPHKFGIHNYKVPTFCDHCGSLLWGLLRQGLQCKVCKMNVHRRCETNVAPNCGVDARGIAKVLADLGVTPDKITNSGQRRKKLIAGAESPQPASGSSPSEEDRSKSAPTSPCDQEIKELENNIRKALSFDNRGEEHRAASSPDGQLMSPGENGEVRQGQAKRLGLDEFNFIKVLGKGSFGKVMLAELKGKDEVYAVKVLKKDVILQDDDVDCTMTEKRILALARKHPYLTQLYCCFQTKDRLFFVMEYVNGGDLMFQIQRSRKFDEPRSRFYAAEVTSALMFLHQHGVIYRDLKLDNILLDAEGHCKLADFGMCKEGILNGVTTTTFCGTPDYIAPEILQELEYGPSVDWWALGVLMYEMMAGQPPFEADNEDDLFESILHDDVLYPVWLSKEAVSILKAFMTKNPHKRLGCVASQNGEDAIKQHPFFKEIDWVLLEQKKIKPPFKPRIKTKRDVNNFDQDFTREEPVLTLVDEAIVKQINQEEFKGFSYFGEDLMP
Description: (§1) Biochemical single point inhibition and IC50 concentrations for TBK1, IKKε (IKBKE), and off-target kinases were determined at ThermoFisher Scientific using SelectScreen Kinase Profiling Services (Madison, WI, USA) (Tables S4A and S4B-1-7). To determine cellular potency, the human colorectal cancer carcinoma cell line HCT116 (ATCC, Manassas, VA) was maintained in T175 flasks in complete RPMI medium; RPMI 1640 supplemented with 10% FBS, 1× Penicillin-Streptomycin solution and 1× MEM (non-essential amino acids). HCT116 cells were grown to 90-95% confluency in T175 flasks containing complete RPMI medium and transfected in bulk using Lipofectamine 2000 (Invitrogen, Carlsbad, CA) with 70 μg of ISG54-luciferase reporter plasmid (Elim Biopharmaceuticals Inc., Hayward, CA). The reporter plasmid contains a luciferase gene expression cassette under the transcriptional regulation of the promoter of the human interferon stimulated gene 54 (ISG54). Transfection of the cells was allowed to take place for 6 hours, after which the cells were harvested by treatment with 0.25% trypsin EDTA (Corning Inc., Corning, NY). Trypsinized cells were added to 384-well poly-d-lysine treated black clear bottom tissue culture assay plates (Greiner Bio-One GmbH, Kremsmunster, Austria) at a density of 20,000 cells/well in 80 μL of complete RPMI medium and incubated overnight. After 16-18 hours post-transfection, the assay plates were washed with PBS (Corning Inc., Corning, NY), followed by addition of 80 μL/well of serum-free RPMI 1640 medium containing 1× Penicillin-Streptomycin solution, 1× MEM and 350 nL of DMSO or titrations of Compound 1. Compound 1 titrations were generated by 1.5-fold dilution steps in two overlapping serial dilution series to generate a 40-point compound dose range. After incubation at 37° C. for 1 hour, the cells were stimulated with Poly(I:C) (InvivoGen, San Diego, CA) at a final concentration of 15 μg/mL in Optimem media (Life Technologies, Rockville, MD). The assay plates were incubated for 5 hours at 37° C., followed by addition of One-Glo luciferase firefly reagent (Promega, Madison, WI) at 1:1 volume/well and luminescence was measured in an EnVision Multilabel Plate Reader (PerkinElmer, Santa Clara, CA). The EC50 values were calculated from the fit of the dose-response curves to a four-parameter equation. All EC50 values represent geometric mean values of a minimum of four determinations.

off-target kinases [2] = target: off-target kinases (Homo sapiens, UniProt Q16644); assay: as above; conditions: MAPKAPK3, ATP Km app, ZLYTE
Sequence of off-target kinases (Homo sapiens, UniProt Q16644) (Q16644 whole entry): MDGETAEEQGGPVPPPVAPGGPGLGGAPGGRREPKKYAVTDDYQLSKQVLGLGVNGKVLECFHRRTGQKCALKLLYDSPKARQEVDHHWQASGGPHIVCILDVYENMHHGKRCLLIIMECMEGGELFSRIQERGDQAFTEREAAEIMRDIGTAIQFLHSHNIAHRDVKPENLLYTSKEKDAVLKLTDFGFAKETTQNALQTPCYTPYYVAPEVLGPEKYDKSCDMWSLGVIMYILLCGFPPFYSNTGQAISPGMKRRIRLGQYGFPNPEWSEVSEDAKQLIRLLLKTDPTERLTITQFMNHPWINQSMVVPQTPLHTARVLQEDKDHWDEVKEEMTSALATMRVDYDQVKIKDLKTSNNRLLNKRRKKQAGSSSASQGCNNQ
Description: as §1

off-target kinases [3] = assay: as above; conditions: 1000 μM
Description: as §1

[4] = EGFR (ErbB1) d746-750 (mutant), LanthaScreen Binding
[5] = PRKCB2 (PKC beta II), ATP Km app, ZLYTE
[6] = TEK (TIE2) mutant (mutation name not given), LanthaScreen

Compound: N#Cc1cc(-c2ncnc(Nc3ccc(N4CCN(C5COC5)CC4)cc3)n2)ccc1OC1CCOCC1 [Compound 1, 5-(4-((4-(4-(oxetan-3-yl)piperazin-1-yl)phenyl)amino)-1,3,5-triazin-2-yl)-2-((tetrahydro-2H-pyran-4-yl)oxy)benzonitrile]
- response to combination treatment in vivo, MB49 bladder carcinoma (MB49 allograft): enhanced response
- inhibition (off-target kinases [1]; PRKCE (PKC), read-out: % Inhibition 1): 1%
- inhibition (off-target kinases [1]; PRKCE (PKC), read-out: % Inhibition Avg): -3%
- inhibition (off-target kinases [1]; PRKCE PKC, read-out: % Inhibition 2): -6%
- inhibition (off-target kinases [2]; read-out: % Inhibition 1): 1%
- inhibition (off-target kinases [2]; read-out: % Inhibition 2): -8%
- inhibition (off-target kinases [2]; read-out: % Inhibition Avg): -3%
- % Inhibition 1 (off-target kinases [3]; [4]): 14%
- % Inhibition 2 (off-target kinases [3]; [4]): 13%
- % Inhibition Avg (off-target kinases [3]; [4]): 14%
- % Inhibition 1 (off-target kinases [3]; FLT3 ITD, LanthaScreen Binding): 64%
- % Inhibition 2 (off-target kinases [3]; FLT3 ITD, LanthaScreen Binding): 62%
- % Inhibition Avg (off-target kinases [3]; FLT3 ITD, LanthaScreen Binding): 63%
- % Inhibition 1 (off-target kinases [3]; FYN A, LanthaScreen Binding): 16%
- % Inhibition Avg (off-target kinases [3]; FYN A, LanthaScreen Binding): 18%
- % Inhibition 1 (off-target kinases [3]; LYN B, ATP Km app, ZLYTE): 56%
- % Inhibition 2 (off-target kinases [3]; LYN B, ATP Km app, ZLYTE): 50%
- % Inhibition Avg (off-target kinases [3]; LYN B, ATP Km app, ZLYTE): 53%
- % Inhibition 2 (off-target kinases [3]; MAP3K7/MAP3K7IP1 (TAK1-TAB1), LanthaScreen Binding): 22%
- % Inhibition 1 (off-target kinases [3]; [5]): 12%
- % Inhibition 2 (off-target kinases [3]; [5]): 8%
- % Inhibition Avg (off-target kinases [3]; [5]): 10%
- % Inhibition 1 (off-target kinases [3]; SRC N1, ATP Km app, ZLYTE): 54%
- % Inhibition 2 (off-target kinases [3]; SRC N1, ATP Km app, ZLYTE): 60%
- % Inhibition Avg (off-target kinases [3]; SRC N1, ATP Km app, ZLYTE): 57%
- % Inhibition 1 (off-target kinases [3]; [6]): 40%
- % Inhibition 2 (off-target kinases [3]; [6]): 41%
- % Inhibition Avg (off-target kinases [3]; [6]): 41%

Reference: US12116636B2, “Methods for evaluating tumor cell spheroids using 3D microfluidic cell culture device” (Dana-Farber Cancer Institute, Inc., priority 2017, dated 2024)
